Measured values reported in PMC8760490, “Discovery of novel furanylbenzamide inhibitors that target oncogenic tyrosine phosphatase SHP2 in leukemia cells” (The Journal of Biological Chemistry, 2021).
Like-named read-outs stand apart in the source and are kept apart here. Values belong to the compound of their own block, whether it stands above or below them.

Key:
Type in all cases: cell-based
[1] = system: MOLM-13-Cas9-mCherry cells with SHP2 KO; test: Cell viability, MOLM-13 SHP2 CRISPR–Cas9 KO; conditions: 72 h, 30 μM to 58 nM
Method: Finally, we evaluated the selectivity of our top two compounds, SBI-2130 and SBI-4668, on MOLM-13 AML cells in which SHP2 was depleted using CRISPR–Cas9 KO. High-efficiency Cas9-editing MOLM-13 cells were generated by transducing MOLM-13 cells with a Cas9 lentiviral construct. Stable clones were tested for editing efficiency by performing tracking of indels by decomposition analysis ([45]), and these MOLM-13-Cas9 cells were transduced with a lentiviral construct containing an AAVS1 single-guide RNA (sgRNA) and an mCherry reporter for bulk sorting of cells with successful AAVS1 editing. […] Cells were treated with inhibitors at various concentrations (ranging from 30 μM to 58 nM) or vehicle control (DMSO) for 72 h, before cell viability was assessed. […]
For SHP2 KO, dual sgRNAs targeting SHP2 were cloned in the pLentiGuide puro vector (Addgene plasmid no. 52963 from Dr Feng Zhang) using a published protocol ([50]). […] SHP2 KO was evaluated by immunoblotting. […] For SHP2 KO, MOLM-13-Cas9-mCherry cells were seeded in nontreated 6-well plates (2 × 10^6 cells/well in 2.5 ml), with cell numbers determined by trypan blue using the Countess Cell Counter (Thermo Scientific). […] Cell viability was assessed using the ATP-depletion assay CellTiter-Glo as described previously, and data were analyzed using GraphPad Prism software.

MOLM-13 AML cells = test: Cell viability (CellTiter-Glo), MOLM-13; conditions: Homo sapiens
Method: (§1) Inhibition of SHP2 has been reported to inhibit the growth of cancer cells including Kasumi-1 acute myeloid leukemia (AML) and KYSE-520 esophageal cancer cells ([30]). […] Thus, we treated two TNBC cell lines, BT-549 and MDA-MB-468, with SBI-4668 or the SHP2 allosteric inhibitor SHP099 at various concentrations and determined cell viability after 72 h, compared with the vehicle control (Fig. 4C). […] Next, we performed an 11-day colony formation assay with TNBC cells treated with SBI-4668 or SHP099 at 5, 10, or 20 μM (Fig. 4D).
Finally, we evaluated the selectivity of our top two compounds, SBI-2130 and SBI-4668, on MOLM-13 AML cells in which SHP2 was depleted using CRISPR–Cas9 KO. High-efficiency Cas9-editing MOLM-13 cells were generated by transducing MOLM-13 cells with a Cas9 lentiviral construct. Stable clones were tested for editing efficiency by performing tracking of indels by decomposition analysis ([45]), and these MOLM-13-Cas9 cells were transduced with a lentiviral construct containing an AAVS1 single-guide RNA (sgRNA) and an mCherry reporter for bulk sorting of cells with successful AAVS1 editing. SHP2 KO was achieved by transducing MOLM-13-Cas9-mCherry cells with a lentivirus, containing SHP2 dual sgRNAs, resulting in ∼80% reduction of SHP2 protein levels (Fig. 4G). SBI-2130, SBI-4668, and the SHP2 allosteric inhibitor, SHP099, were tested in parallel on regular MOLM-13 cells (expressing WT SHP2) and MOLM-13-Cas9-mCherry cells with SHP2 KO. Cells were treated with inhibitors at various concentrations (ranging from 30 μM to 58 nM) or vehicle control (DMSO) for 72 h, before cell viability was assessed.
Viability of AML and esophageal carcinoma cells was assessed using the ATP-depletion assay CellTiter-Glo (Promega). Cells were harvested at 1 × 10^6/ml to 2 × 10^6 cells/ml with cell numbers determined by trypan blue using the Countess Cell counter (Thermo Scientific) and resuspended in culture media. About 3000 cells (in 20 μl) were seeded in a 384-well format white and clear-bottom microplate (catalog no.: 781098; Greiner) spotted with test compound or vehicle control (DMSO) using an Echo 555 Liquid Handler. […] Luminescence was read on a Tecan Spark Multimode Microplate Reader, and data were analyzed using GraphPad Prism software.
For SHP2 KO, dual sgRNAs targeting SHP2 were cloned in the pLentiGuide puro vector (Addgene plasmid no. 52963 from Dr Feng Zhang) using a published protocol ([50]). […] SHP2 KO was evaluated by immunoblotting. […] For SHP2 KO, MOLM-13-Cas9-mCherry cells were seeded in nontreated 6-well plates (2 × 10^6 cells/well in 2.5 ml), with cell numbers determined by trypan blue using the Countess Cell Counter (Thermo Scientific). […]

MV4-11 AML cells = test: Cell viability (CellTiter-Glo), MV4-11; conditions: Homo sapiens, MV4-11, 72 h; 3 days in culture
Method: as §1
Viability of AML and esophageal carcinoma cells was assessed using the ATP-depletion assay CellTiter-Glo (Promega). Cells were harvested at 1 × 10^6/ml to 2 × 10^6 cells/ml with cell numbers determined by trypan blue using the Countess Cell counter (Thermo Scientific) and resuspended in culture media. About 3000 cells (in 20 μl) were seeded in a 384-well format white and clear-bottom microplate (catalog no.: 781098; Greiner) spotted with test compound or vehicle control (DMSO) using an Echo 555 Liquid Handler. Cells were incubated for 3 days, before 10 μl of CellTiter-Glo reagent mix was added to each well and incubated for 10 min at RT. Luminescence was read on a Tecan Spark Multimode Microplate Reader, and data were analyzed using GraphPad Prism software.

[2] = 72 h, 30 μM to 58 nM, regular MOLM-13 expressing WT SHP2 (Fig. 4G), read-out: MOLM-13 cell viability IC50 (parallel to SHP2 KO)

IC50 (MOLM-13 AML cells; [2]): 7.6 µM
SMILES: Nc1ccc(NC(=O)c2cc(-c3ccc(/C=C4\Sc5ccccc5C4=O)o3)ccc2O)cc1 [SBI-2130, (Z)-N-(4-Aminophenyl)-2-hydroxy-5-(5-((3-oxobenzo[b]thiophen-2(3H)-ylidene)methyl)furan-2-yl)benzamide]
effect on viability of MOLM-13-Cas9-mCherry SHP2 KO cells [1]: either completely abrogated or greatly reduced

SMILES: O=C(Nc1ccccc1)c1cc(-c2ccc(/C=C3\Sc4ccccc4C3=O)o2)ccc1O [SBI-4668, (Z)-2-Hydroxy-5-(5-((3-oxobenzo[b]thiophen-2(3H)-ylidene)methyl)furan-2-yl)-N-phenylbenzamide]
effect on viability of MOLM-13-Cas9-mCherry SHP2 KO cells [1]: either completely abrogated or greatly reduced | IC50 (MOLM-13 AML cells; MOLM-13, 72 h, 3 days in culture (Fig. 4B), read-out: MOLM-13 cell viability IC50): 12 µM | IC50 (MOLM-13 AML cells; [2]): 15 µM | IC50 (MV4-11 AML cells): 8.2 µM
